No end group written: not given here.
Key:
naïve CD4+CD25− cells = experiment: Treg induction from naïve T cells by soluble factors (FoxP3 staining, flow cytometry); type: cell-based, mouse
[1] = cited from earlier work
[2] = tested on: dendritic cells / FoxP3+ CD4+ T-cells; experiment: VIP bioactivity assay: DC culture and CD4+ T cell chemotaxis; type: cell-based, mouse; settings: LPS
Description: Three separate DC cultures with 24 individual wells were completed in accordance with Example XIII Both GM-CSF and IL-4 were used to culture the cells in the first two DC cell cultures, but for the third DC culture, the IL-4 was omitted to reduce its possible interference in steering immune cells toward a tolerogenic phenotype. Chemotaxis studies of CD4+ T-cells were performed and the percent of FoxP3+ T-cells which flowed through the transwells for each group was evaluated using flow. The data is presented as a normalized percent of FoxP3+ cells which were recruited by the DCs for the first DC when both IL-4 and GM-CSF were used to culture the DC precursors and when GM-CSF was used alone in the last DC culture. […] See, FIG. 15.
When the DC culture was repeated with the absence of IL-4 and addition of 5×GM-CSF, flow cytometry indicated slightly different trends. […]
In the first two experiments, both GM-CSF and IL-4 were added to DC media (modified RPMI 1640) of bone marrow cell cultures during media changes on Days 0, 3 and 6. […] Five different groups of four wells each were analyzed and received treatment. […]
CD4+ T-cells were isolated from the spleen and lymph nodes of a mouse using Dynal® beads following a standard protocol. […] T Cells that flowed through were analyzed for FoxP3+ expression using flow cytometry.

## CC1=C(/C=C/C(C)=C/C=C/C(C)=C/C(=O)O)C(C)(C)CCC1 [RA, all-trans retinoic acid]
naïve CD4+CD25− cells; RA 0.1 ng/ml, TGF-β 0 ng/ml
  percent of CD4+ that express FoxP3: 2.71%
naïve CD4+CD25− cells; RA 0.1 ng/ml, TGF-β 0.5 ng/ml
  percent of CD4+ that express FoxP3: 11.98%
naïve CD4+CD25− cells; RA 0.1 ng/ml, TGF-β 5 ng/ml
  percent of CD4+ that express FoxP3: 35.18%
naïve CD4+CD25− cells; RA 0.1 ng/ml, TGF-β 20 ng/ml
  percent of CD4+ that express FoxP3: 28.33%
naïve CD4+CD25− cells; RA 1 ng/ml, TGF-β 0 ng/ml
  percent of CD4+ that express FoxP3: 2.64%
naïve CD4+CD25− cells; RA 1 ng/ml, TGF-β 0.5 ng/ml
  percent of CD4+ that express FoxP3: 10.5%
naïve CD4+CD25− cells; RA 1 ng/ml, TGF-β 5 ng/ml
  percent of CD4+ that express FoxP3: 44.71%
naïve CD4+CD25− cells; RA 1 ng/ml, TGF-β 20 ng/ml
  percent of CD4+ that express FoxP3: 42.25%
naïve CD4+CD25− cells; RA 10 ng/ml, TGF-β 0 ng/ml
  percent of CD4+ that express FoxP3: 2.27%
naïve CD4+CD25− cells; RA 10 ng/ml, TGF-β 0.5 ng/ml
  percent of CD4+ that express FoxP3: 9.36%
naïve CD4+CD25− cells; RA 10 ng/ml, TGF-β 5 ng/ml
  percent of CD4+ that express FoxP3: 42.22%
naïve CD4+CD25− cells; RA 10 ng/ml, TGF-β 20 ng/ml
  percent of CD4+ that express FoxP3: 45.97%
naïve CD4+CD25− cells; RA 100 ng/ml, TGF-β 0 ng/ml
  percent of CD4+ that express FoxP3: 2.23%
naïve CD4+CD25− cells; RA 100 ng/ml, TGF-β 0.5 ng/ml
  percent of CD4+ that express FoxP3: 10.01%
naïve CD4+CD25− cells; RA 100 ng/ml, TGF-β 5 ng/ml
  percent of CD4+ that express FoxP3: 50.71%
naïve CD4+CD25− cells; RA 100 ng/ml, TGF-β 20 ng/ml
  percent of CD4+ that express FoxP3: 43.43%
[1]
  toxicity upon local administration: induce hypervitaminosis-A

## CO[C@H]1C[C@@H]2CC[C@@H](C)[C@@](O)(O2)C(=O)C(=O)N2CCCC[C@H]2C(=O)O[C@H]([C@H](C)C[C@@H]2CC[C@@H](O)[C@H](OC)C2)CC(=O)[C@H](C)/C=C(\C)[C@@H](O)[C@@H](OC)C(=O)[C@H](C)C[C@H](C)/C=C/C=C/C=C/1C [Rapa, rapamycin]
naïve CD4+CD25− cells; Rapa 1 ng/ml, TGF-β 0 ng/ml
  percent of CD4+ that express FoxP3: 1.91%
naïve CD4+CD25− cells; Rapa 1 ng/ml, TGF-β 0.1 ng/ml
  percent of CD4+ that express FoxP3: 3.04%
naïve CD4+CD25− cells; Rapa 1 ng/ml, TGF-β 1 ng/ml
  percent of CD4+ that express FoxP3: 8.89%
naïve CD4+CD25− cells; Rapa 1 ng/ml, TGF-β 5 ng/ml
  percent of CD4+ that express FoxP3: 34.41%
naïve CD4+CD25− cells; Rapa 1 ng/ml, TGF-β 20 ng/ml
  percent of CD4+ that express FoxP3: 76.22%
naïve CD4+CD25− cells; Rapa 10 ng/ml, TGF-β 0 ng/ml
  percent of CD4+ that express FoxP3: 3.45%
naïve CD4+CD25− cells; Rapa 10 ng/ml, TGF-β 0.1 ng/ml
  percent of CD4+ that express FoxP3: 5.31%
naïve CD4+CD25− cells; Rapa 10 ng/ml, TGF-β 1 ng/ml
  percent of CD4+ that express FoxP3: 14.48%
naïve CD4+CD25− cells; Rapa 10 ng/ml, TGF-β 5 ng/ml
  percent of CD4+ that express FoxP3: 51.08%
naïve CD4+CD25− cells; Rapa 10 ng/ml, TGF-β 20 ng/ml
  percent of CD4+ that express FoxP3: 78.27%
naïve CD4+CD25− cells; Rapa 100 ng/ml, TGF-β 0 ng/ml
  percent of CD4+ that express FoxP3: 4.13%
naïve CD4+CD25− cells; Rapa 100 ng/ml, TGF-β 0.1 ng/ml
  percent of CD4+ that express FoxP3: 7.8%
naïve CD4+CD25− cells; Rapa 100 ng/ml, TGF-β 1 ng/ml
  percent of CD4+ that express FoxP3: 22.05%
naïve CD4+CD25− cells; Rapa 100 ng/ml, TGF-β 5 ng/ml
  percent of CD4+ that express FoxP3: 54.19%
naïve CD4+CD25− cells; Rapa 100 ng/ml, TGF-β 20 ng/ml
  percent of CD4+ that express FoxP3: 80.36%

## TGF-β: recombinant human TGF-β1 (CHO cell-derived, PeproTech), transforming growth factor β1
naïve CD4+CD25− cells; RA 0 ng/ml, TGF-β 0.5 ng/ml (Table 2)
  percent of CD4+ that express FoxP3: 8.08%
naïve CD4+CD25− cells; RA 0 ng/ml, TGF-β 5 ng/ml (Table 2)
  percent of CD4+ that express FoxP3: 28.52%
naïve CD4+CD25− cells; RA 0 ng/ml, TGF-β 20 ng/ml (Table 2)
  percent of CD4+ that express FoxP3: 27.42%
naïve CD4+CD25− cells; Rapa 0 ng/ml, TGF-β 0.1 ng/ml (Table 1)
  percent of CD4+ that express FoxP3: 0.61%
naïve CD4+CD25− cells; Rapa 0 ng/ml, TGF-β 1 ng/ml (Table 1)
  percent of CD4+ that express FoxP3: 2.82%
naïve CD4+CD25− cells; Rapa 0 ng/ml, TGF-β 5 ng/ml (Table 1)
  percent of CD4+ that express FoxP3: 18.16%
naïve CD4+CD25− cells; Rapa 0 ng/ml, TGF-β 20 ng/ml (Table 1)
  percent of CD4+ that express FoxP3: 53.26%

## VIP: Vasoactive intestinal peptide, a 28-amino acid neuropeptide (HSDAVFTDNYTRLRKQMAVKKYLNSILN; ends and bridges not checked; UniProt P01282 125-152, looked up)
[2]; DC precursors cultured with IL-4 and GM-CSF, versus LPS only or blank particle releasates
  percentage of FoxP3+ cells recruited by treated DCs: recruited a higher percentage of FoxP3+ cells
[2]; no IL-4, 5×GM-CSF, relative to LPS alone
  percentage of FoxP3+ cells recruited by treated DCs: recruited the same percentage of FoxP3+ cells
